Data from paper PMC4077815, “Modulation of Phosphorylation of Tocopherol and Phosphatidylinositol by hTAP1/SEC14L2-Mediated Lipid Exchange” (PLoS ONE, 2014).

What was measured:
[1] = molecular target: T1, recombinant PI3Kγ/p110γ (phosphatidylinositol-3-kinase gamma) (Homo sapiens, UniProt P48736); assay: [γ-32P]-ATP phosphatidylinositol kinase assay, TLC; format: biochemical; details: stimulator; no hTAP1; phosphatidylinositol 100 µM, ATP 20 µM, 4 mM MgCl2, pH 7.4, 37 °C
T1 construct: gene PIK3CG; no regulatory subunit mentioned
T1 sequence (P48736 whole entry): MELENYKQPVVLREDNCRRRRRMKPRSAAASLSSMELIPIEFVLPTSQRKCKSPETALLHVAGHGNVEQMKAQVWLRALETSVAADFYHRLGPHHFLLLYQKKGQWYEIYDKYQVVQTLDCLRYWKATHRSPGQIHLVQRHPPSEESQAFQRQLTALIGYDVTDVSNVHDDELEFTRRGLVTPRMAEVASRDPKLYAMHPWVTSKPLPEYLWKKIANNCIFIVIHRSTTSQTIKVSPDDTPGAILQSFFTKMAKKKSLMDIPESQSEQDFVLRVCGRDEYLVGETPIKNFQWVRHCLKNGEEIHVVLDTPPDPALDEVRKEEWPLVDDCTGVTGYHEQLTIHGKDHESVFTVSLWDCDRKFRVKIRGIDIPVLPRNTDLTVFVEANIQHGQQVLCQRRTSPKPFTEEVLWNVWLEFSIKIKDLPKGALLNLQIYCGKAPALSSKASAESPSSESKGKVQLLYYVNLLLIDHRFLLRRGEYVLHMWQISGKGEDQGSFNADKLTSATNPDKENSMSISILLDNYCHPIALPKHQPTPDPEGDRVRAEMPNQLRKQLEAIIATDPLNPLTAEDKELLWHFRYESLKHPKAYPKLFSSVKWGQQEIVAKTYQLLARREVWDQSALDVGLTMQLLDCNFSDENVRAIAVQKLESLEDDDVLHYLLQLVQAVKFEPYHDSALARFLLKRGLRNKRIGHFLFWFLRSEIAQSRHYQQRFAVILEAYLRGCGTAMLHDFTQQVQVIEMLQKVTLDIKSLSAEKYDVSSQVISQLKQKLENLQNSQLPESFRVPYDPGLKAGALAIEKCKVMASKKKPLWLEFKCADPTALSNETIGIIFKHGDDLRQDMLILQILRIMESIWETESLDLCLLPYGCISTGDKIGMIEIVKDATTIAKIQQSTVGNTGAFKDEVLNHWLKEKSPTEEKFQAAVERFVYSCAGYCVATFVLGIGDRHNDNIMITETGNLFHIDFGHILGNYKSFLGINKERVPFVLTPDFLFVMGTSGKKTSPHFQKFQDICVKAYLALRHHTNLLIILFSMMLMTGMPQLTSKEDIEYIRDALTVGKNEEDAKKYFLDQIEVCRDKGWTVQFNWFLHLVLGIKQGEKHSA

[2] = molecular target: recombinant phosphatidylinositol-3-kinase gamma PI3Kγ/p110γ (UniProt P48736)
recombinant phosphatidylinositol-3-kinase gamma PI3Kγ/p110γ, sequence (P48736 whole entry): as above

[3] = molecular target: T2, recombinant hTAP1 (human tocopherol associated protein 1, hSEC14L2) (Homo sapiens, UniProt O76054); parameters: gene SEC14L2; details: competitor of phosphatidylinositol; native isoelectric focusing gel
T2 sequence (O76054 whole entry): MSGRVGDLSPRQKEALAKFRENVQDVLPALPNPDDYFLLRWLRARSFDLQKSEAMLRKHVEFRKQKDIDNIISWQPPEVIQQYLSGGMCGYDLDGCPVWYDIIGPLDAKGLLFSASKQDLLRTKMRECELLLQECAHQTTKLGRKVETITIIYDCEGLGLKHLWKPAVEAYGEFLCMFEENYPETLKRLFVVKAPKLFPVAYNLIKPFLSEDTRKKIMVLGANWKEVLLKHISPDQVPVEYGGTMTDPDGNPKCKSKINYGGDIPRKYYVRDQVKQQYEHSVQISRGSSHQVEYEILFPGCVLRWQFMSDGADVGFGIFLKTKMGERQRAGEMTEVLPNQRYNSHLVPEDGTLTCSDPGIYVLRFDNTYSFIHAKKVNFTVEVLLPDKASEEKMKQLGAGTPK

[4] = molecular target: T2, recombinant hTAP1 (human tocopherol associated protein 1, hSEC14L2); assay: isoelectric point mobility shift competition with phosphatidylinositol; format: binding; parameters: gene SEC14L2; N-terminal His tag, expressed in and purified from Escherichia coli; details: read-out: 50% displacement of PI

recombinant human tocopherol associated protein 1, sequence (O76054 whole entry): as above

Molecule | % of control activity at 50 μM [1] | other results
Cc1cc(O)c(C)c2c1O[C@](C)(CCC[C@H](C)CCC[C@H](C)CCCC(C)C)CC2 [RRR-β-tocopherol] | All four tocopherols stimulated PI3Kγ activity with similar efficiency (Figure 4A) | 
Cc1cc(O)cc2c1O[C@](C)(CCC[C@H](C)CCC[C@H](C)CCCC(C)C)CC2 [RRR-δ-tocopherol] | All four tocopherols stimulated PI3Kγ activity with similar efficiency (Figure 4A) | 
recombinant human tocopherol associated protein 1 (from UniProt O76054 1-403) (natural protein) |  | in vitro PI3Kγ activity (phosphorylation of phosphatidylinositol with [γ-32P]-ATP, TLC) in the presence of recombinant hTAP1, relative to the control without hTAP1 [2]: 38%
Cc1c(C)c2c(c(C)c1OP(=O)(O)O)CC[C@@](C)(CCC[C@H](C)CCC[C@H](C)CCCC(C)C)O2 [α-tocopheryl phosphate] | αTP stimulated PI3Kγ stronger than αT (Figure 4B) | isoelectric point mobility shift competition with phosphatidylinositol [3]: the competition with αTP was slightly weaker (Figure 3B)
Cc1c(O)cc2c(c1C)O[C@](C)(CCC[C@H](C)CCC[C@H](C)CCCC(C)C)CC2 [RRR-γ-tocopherol] | All four tocopherols stimulated PI3Kγ activity with similar efficiency (Figure 4A) | 
Cc1c(C)c2c(c(C)c1O)CC[C@@](C)(CCC[C@H](C)CCC[C@H](C)CCCC(C)C)O2 [RRR-α-tocopherol] | All four tocopherols stimulated PI3Kγ activity with similar efficiency (Figure 4A) | IC50 [4]: 50 µM
